Columns and labels:
[1] = mouse, in vivo
Protocol: After drug administration, five animals from each group were euthanized at selected time-points (0.5, 1, 6, 12, 24 and 48 h) with pentobarbital intraperitoneal injection (120 mg/kg) followed by cardiac puncture for blood collection. Blood serum was separated after leaving the blood to coagulate for 30 min at room temperature and centrifugation (at 500× g, and 4 °C for 15 min). […] Both blood serum and serum ultrafiltrate were aliquoted (50 μL) and stored at −80 °C until ICP-MS analysis. Right brain hemisphere, liver, lungs, heart, right kidney, ovaries, abdominal white adipose tissue and abdominal mammary glands were excised at the same time, washed in cold PBS, blotted dry on filter paper and weighed. […]
The mean concentrations of Pd or Pt in serum and serum ultrafiltrate were plotted logarithmically versus time. […] The area under the curve (AUC) from time zero to the last time with quantified concentration (AUC0-48h) was calculated by a linear log trapezoidal (linear up log down) method. […] The drug half-life (t1/2) was calculated as ln2/λz. The rate of total clearance (CL/F) of the compound was calculated as the administered metal dose divided by the AUC0−∞. The distribution volume based on the terminal phase (Vz/F) was calculated as dose/[λz.AUC0−∞].

[2] = design: species or system Balb/c mice; conditions: mouse, in vivo; for Tmax: ip
Protocol: After drug administration, five animals from each group were euthanized at selected time-points (0.5, 1, 6, 12, 24 and 48 h) with pentobarbital intraperitoneal injection (120 mg/kg) followed by cardiac puncture for blood collection. Blood serum was separated after leaving the blood to coagulate for 30 min at room temperature and centrifugation (at 500× g, and 4 °C for 15 min). […] Both blood serum and serum ultrafiltrate were aliquoted (50 μL) and stored at −80 °C until ICP-MS analysis. Right brain hemisphere, liver, lungs, heart, right kidney, ovaries, abdominal white adipose tissue and abdominal mammary glands were excised at the same time, washed in cold PBS, blotted dry on filter paper and weighed. Solid tissues were freeze-dried (0.016 mBar, −80.8 °C, 48 h; Telstar®, model Cryodos Barcelona, Spain) and stored hermetically sealed at −80 °C until ICP-MS analysis.
Briefly, 50 μL of blood serum, 50 μL of serum ultrafiltrate and weighed entire freeze-dried organs/tissues (up to 50 mg) were placed into 10 mL polypropylene conical tubes. In the case of liver, for which the weight surpassed 50 mg, the tissue was first pulverized with a Precellys® Evolution tissue homogenizer (Bertin-Instruments, Montigny-le-Bretonneux, France) using 2.8 mm stainless steel beads (two cycles of 10 s at 6000 rpm speed) and accurately weighed (50 mg) in tubes. Samples were digested directly in tubes with 0.9 mL of HNO3 (≥69.0% w/w) plus 0.3 mL of HCl (37% w/w) in a water bath at 90 °C for 1 h. Sample digests were cooled to room temperature, 0.5 mL of a 100 µg/L internal standards (IS) solution was added and the final volume was adjusted to 5 mL with ultrapure water (final concentration of IS = 10 µg/L). Prior to ICP-MS analysis, samples were further diluted 5-fold with a diluent solution (2% HNO3 + 3% HCl + 10 µg/L IS). An iCAP^TM Q (Thermo Fisher Scientific, Bremen, Germany) ICP-MS was used for the determination of Pd and Pt in the obtained solutions. Calibration standards ranging from 0.025 to 100 µg/L were prepared from the 100 mg/L multi-element commercial TraceCERT®, ICH Q3D oral, Standard 2 solution. The IS solution was prepared at 100 µg/L by appropriate dilution of the ICP-MS-200.8-IS-1 solution.
The mean concentrations of Pd or Pt in serum and serum ultrafiltrate were plotted logarithmically versus time. Non-compartmental analysis was performed on sparse data with 1/Y^2 weighting, which was selected based on the highest correlation coefficients and agreement between observed versus predicted pharmacokinetic parameters. […] The area under the curve (AUC) from time zero to the last time with quantified concentration (AUC0-48h) was calculated by a linear log trapezoidal (linear up log down) method. The AUC from time zero to infinity (AUC0−∞) was extrapolated as AUC0−48 h + C48h/λz, where C48h is the last measured concentration, and λz is the elimination constant rate calculated using linear regression of the terminal portion of the log–linear serum concentration–time curve. The drug half-life (t1/2) was calculated as ln2/λz. The rate of total clearance (CL/F) of the compound was calculated as the administered metal dose divided by the AUC0−∞. The distribution volume based on the terminal phase (Vz/F) was calculated as dose/[λz.AUC0−∞].

HCC-1143 cells = experiment: In vitro cellular drug uptake/accumulation by ICP-MS; assay type: cell-based, human; conditions: 24 h; for dependence of cellular drug uptake on drug concentration in medium: 2-8 µM
Protocol: (§1) The in vitro studies were performed on human triple-negative (lack of estrogen receptors, progesterone receptors and HER2 overexpression) breast cancer cell lines MDA-MB-231 and HCC-1143, which were purchased from the Leibniz Institute DSMZ-German Collection of Microorganisms and Cell Cultures GmbH, Germany. MDA-MB-231 were cultured in DMEM-HG cell culture medium supplemented with 10% (v/v) FBS, and HCC-1143 cells were cultured in RPMI-1640 cell culture medium supplemented with 20% (v/v) FBS. Cells were maintained in a sterile environment at 37 °C with a 5% CO2 humidified atmosphere and were routinely tested for mycoplasma contamination.
(§2) The intracellular Pt and Pd accumulation in MDA-MB-231 and HCC-1143 cells was analyzed using ICP-MS. First, 3 × 10^4/cm^2 cells were seeded in T75 culture flasks and allowed to attach for 24 h. […] The cells were trypsinized, washed twice with ice-cold 0.9% saline solution, and 10^6 cells were pelleted and freeze-dried. The lyophilized cell pellets were digested and analyzed using the same analytical procedure described for the pharmacokinetic study. […] The protein concentration used for the data normalization was determined from identical samples that were prepared in parallel and quantified with the Bradford protein assay.

MDA-MB-231 cells = experiment: as above; assay type: cell-based, human; conditions: 24 h; for dependence of cellular drug uptake on drug concentration in medium: 2-8 µM
Protocol: as §1, §2

plasma proteins = conditions: mouse, in vivo
Protocol: After drug administration, five animals from each group were euthanized at selected time-points (0.5, 1, 6, 12, 24 and 48 h) with pentobarbital intraperitoneal injection (120 mg/kg) followed by cardiac puncture for blood collection. Blood serum was separated after leaving the blood to coagulate for 30 min at room temperature and centrifugation (at 500× g, and 4 °C for 15 min). […] Both blood serum and serum ultrafiltrate were aliquoted (50 μL) and stored at −80 °C until ICP-MS analysis.
Briefly, 50 μL of blood serum, 50 μL of serum ultrafiltrate and weighed entire freeze-dried organs/tissues (up to 50 mg) were placed into 10 mL polypropylene conical tubes. In the case of liver, for which the weight surpassed 50 mg, the tissue was first pulverized with a Precellys® Evolution tissue homogenizer (Bertin-Instruments, Montigny-le-Bretonneux, France) using 2.8 mm stainless steel beads (two cycles of 10 s at 6000 rpm speed) and accurately weighed (50 mg) in tubes. Samples were digested directly in tubes with 0.9 mL of HNO3 (≥69.0% w/w) plus 0.3 mL of HCl (37% w/w) in a water bath at 90 °C for 1 h. Sample digests were cooled to room temperature, 0.5 mL of a 100 µg/L internal standards (IS) solution was added and the final volume was adjusted to 5 mL with ultrapure water (final concentration of IS = 10 µg/L). […]

H2AX histone (γH2AX) = system: H2AX histone (γH2AX); design: method as in PMID 21371266; conditions: cited from earlier work
[3] = system: albumin / plasma proteins; conditions: rodents, 3 h post-administration; cited from earlier work

| SMILES | higher accumulation of Pd relative to Pt [1] [%] | lower accumulation of Pd than Pt (dose-normalized AUC) [1] [%] | concentration of free Pd/Pt in serum ultrafiltrate at 48 h [2] [ng/mL] | Tmax [2] [min] | dependence of cellular drug uptake on drug concentration in medium (HCC-1143 cells) | intracellular accumulation compared to cisplatin (HCC-1143 cells; equimolar 2-8 µM) | dependence of cellular drug uptake on drug concentration in medium (MDA-MB-231 cells) | intracellular accumulation compared to cisplatin (MDA-MB-231 cells; equimolar 2-8 µM) | decrease of fraction bound to plasma proteins at 48 h compared to the preceding period (plasma proteins) [%] | phosphorylation of H2AX histone (γH2AX) compared to cisplatin (H2AX histone (γH2AX)) | bound to albumin (mostly via irreversible covalent bonds) [3] [%] |
| --- | --- | --- | --- | --- | --- | --- | --- | --- | --- | --- | --- |
| [Cl][Pd-2]1([Cl])[NH2+]CCC[NH+]1CCCC[NH+]1CCC[NH2+][Pd-2]1([Cl])[Cl] (stereo not drawn) [Pd2Spm] | 74.2 | 82.7 | 2.3 | 30 | increase linearly with drug concentration | lower intracellular Pd2Spm increase as compared to cisplatin | increase linearly with drug concentration | lower intracellular Pd2Spm increase as compared to cisplatin | 3.1 | more extensive phosphorylation of H2AX histone | – |
| O=C(O)C(=O)O.[NH-][C@@H]1CCCC[C@H]1[NH-].[Pt+2] [oxaliplatin] | – | – | – | – | – | – | – | – | – | – | > 85 |
| N.N.[Cl][Pt][Cl] [Cisplatin, cis-dichlorodiammine platinum(II), reference compound] | – | – | 4.1 | 30 | increase linearly with drug concentration | – | increase linearly with drug concentration | – | – | – | – |

Reference: article PMC7926495, “Preclinical Pharmacokinetics and Biodistribution of Anticancer Dinuclear Palladium(II)-Spermine Complex (Pd2Spm) in Mice” (Pharmaceuticals, 2021)
